Source: article PMC6848382, “Characterization of the Bioactivity and Mechanism of Bactenecin Derivatives Against Food-Pathogens” (Frontiers in Microbiology, 2019)
Converted amounts (≈) assume the structure as drawn. Where two headings read alike, the source gives them in different places. Residues, ends and D or L forms follow the SMILES beside them. No end group written: not given here.

Key:
[1] = test system: Salmonella typhimurium C77-31; assay type: cell-based
Description: (§1) The antimicrobial activity of each peptide against food-pathogens was characterized by the minimum inhibitory concentration (MIC) ([Ma et al., 2013]). A logarithmic growth-phase culture of bacteria (1 × 10^6 CFU/mL) was mixed with peptide solutions (final concentration ranging from 0 μM to 256 μM) in 96-well plates. After the 96-well plates were incubated for 24 h at 37°C, optical dispersion (OD) was measured using a microplate reader (Bio-Rad, ıHercules, CA, United States) at 630 nm. […] The broth with bacteria cells was used as the negative control, and un-inoculated broth was used as a positive control. The tests were performed in triplicate using three replicates for each experiment.

[2] = test system: Escherichia coli ATCC25922; assay type: cell-based; details: for MIC, CaCl2 / MIC, Control / MIC, KCl / MIC, MgCl2 / MIC, NH4Cl / MIC, NaCl: ATCC25922, 24 h
Description: To evaluate the effect of different physiological conditions on the stability of peptides, we determined the salt stability, thermal stability, and enzymatic stability as described in a previous study ([Dong, 2013]; [Sun et al., 2018]). Escherichia coli ATCC25922 grown in the logarithmic phase (1 × 10^6 CFU/mL) was exposed to each peptide at different salt concentrations (150 mM NaCl, 4.5 mM KCl, 6 μM NH4Cl, 1 mM MgCl2, 8 μM ZnCl2, 2 mM CaCl2, and 4 μM FeCl3). The peptides were treated for 1 h at 100°C to test for thermal stability. The peptides were treated with trypsin, pepsin, papain and protease k at a concentration of 1 mg/mL for 1 h at 37°C to test for enzyme stability. The control group consisted of untreated peptides. The subsequent assay was consistent with the MIC assay.

[3] = test system: Cronobacter sakazakii ATCC29544; assay type: cell-based
Description: as §1

[4] = test system: Staphylococcus aureus ATCC25923; assay type: cell-based
Description: as §1

[5] = test system: Staphylococcus aureus CMCC26074; assay type: cell-based
Description: as §1

[6] = test system: Escherichia coli ATCC25922; assay type: cell-based; details: ATCC25922, 24 h
Description: as §1

Bacillus cereus CMCC6303 = assay type: cell-based
Description: as §1

[7] = test system: Salmonella pullorum C79-13; assay type: cell-based; details: 24 h
Description: as §1

[8] = test system: Salmonella typhimurium ATCC14028; assay type: cell-based
Description: as §1

[9] = test system: 12 typical food-pathogens; details: over the 12 food-pathogens of Table 3
Description: as §1
The selectivity index (SI), calculated as the ratio of MHC to GM, was used a comparison parameter for the safety and efficacy of peptides.

Escherichia coli UB1005 = assay type: cell-based
Description: as §1

EA. hy 926 cells = test: Cytotoxicity (CCK-8); assay type: cell-based, human; details: CCK-8, 24 h; for EA. hy 926 cell viability: peptide concentration 128 μM
Description: The cytotoxicity of the peptides was tested on the EA. hy 926 cell line by using the Cell Counting Kit-8 (CCK-8, Dojindo, Japan) as described in a previous study ([Sánchez-Gómez et al., 2015]). The EA. Hy 926 cells cultured in the logarithmic growth -phase was then diluted with PBS to a single cell suspension. A 100 μL cell suspension (2 × 10^5 cells) was added to 96-well plates and cultured in an incubator with a 5% CO2 atmosphere at 37°C. The cell culture medium was removed, and the two-fold serial dilutions of peptides prepared using DMEM with 5% FBS were added to the 96-well plates. After 24 h, 100 μL DMEM with 10% CCK-8 was added to the 96-well plates and then cultured for 4 h. The absorbance was measured at 492 nm by using a microplate reader. DMEM served as a positive control and cells mixed with DMEM without peptides as a negative control. Melittin was employed as a control peptide.

[10] = test system: Listeria monocytogenes CMCC54004; assay type: cell-based
Description: as §1

[11] = test system: Salmonella enteric-subspenterica CMCC47020; details: 1 × 10^6 CFU/mL, 24 h, 37°C, triplicate
Description: as §1

[12] = test system: Salmonella enteric-subspenterica CMCC50071; details: 1 × 10^6 CFU/mL, 24 h, 37°C, triplicate
Description: as §1

[13] = E. coli ATCC25922, peptides treated with trypsin 1 mg/mL, 1 h, 37°C
[14] = Staphylococcus aureus ATCC25923, 1 × 10^6 CFU/mL, 24 h, 37°C, triplicate
[15] = Staphylococcus aureus CMCC26074, 1 × 10^6 CFU/mL, 24 h, 37°C, triplicate

Row | Compound | MIC ([1]; murium C77-31, 24 h) | MIC, Heat ([2]; ATCC25922, 1 h) | MIC, Papain ([2]; ATCC25922, 1 h) | MIC, Pepsin ([2]; ATCC25922, 1 h) | MIC, Proteinase k ([2]; ATCC25922, 1 h) | MIC, CaCl2 [2] | MIC, Control [2] | MIC, KCl [2] | MIC, MgCl2 [2] | MIC, NH4Cl [2] | MIC, NaCl [2] | MIC ([3]; ATCC29544, 24 h) | MIC ([4]; ATCC25923, 24 h) | MIC ([5]; CMCC26074, 24 h) | MIC [6] | MIC (Bacillus cereus CMCC6303; CMCC6303, 24 h) | MIC [7] | MIC ([8]; ATCC14028, 24 h) | GM (geometric mean of MICs) [9] | EA. hy 926 cell viability (EA. hy 926 cells) | further results
1 | CC[C@H](C)[C@@H]1NC(=O)[C@H](CCCNC(=N)N)NC(=O)[C@@H](NC(=O)[C@H](CC(C)C)NC(=O)[C@@H](N)CCCNC(=N)N)CSSC[C@@H](C(=O)N[C@@H](CCCNC(=N)N)C(N)=O)NC(=O)[C@H](C(C)C)NC(=O)[C@H](CCCNC(=N)N)NC(=O)[C@H]([C@@H](C)CC)NC(=O)[C@H](C(C)C)NC(=O)[C@H](C(C)C)NC1=O [L2C3V10C11, bactenecin] (HELM PEPTIDE1{R.L.C.R.I.V.V.I.R.V.C.R.[am]}$PEPTIDE1,PEPTIDE1,3:R3-11:R3$$$V2.0) | >256 µM | 8 µM (≈ 11.9 µg/mL) | 16 µM (≈ 23.7 µg/mL) | 16 µM (≈ 23.7 µg/mL) | 32 µM (≈ 47.5 µg/mL) | 8 µM (≈ 11.9 µg/mL) | 4 µM (≈ 5.93 µg/mL) | 4 µM (≈ 5.93 µg/mL) | 4 µM (≈ 5.93 µg/mL) | 4 µM (≈ 5.93 µg/mL) | 16 µM (≈ 23.7 µg/mL) | 256 µM (≈ 380 µg/mL) | >256 µM | >256 µM | 4 µM (≈ 5.93 µg/mL) | 64 µM (≈ 94.9 µg/mL) | >256 µM |  |  |  | MIC, Trypsin ([2]; ATCC25922, 1 h): 64 µM (≈ 94.9 µg/mL)
2 | RKRRIVVIRRKR-NH2 [K2R3R10K11] |  | 16 µM | 8 µM | 32 µM | 8 µM | 16 µM | 8 µM | 8 µM | 8 µM | 8 µM | 32 µM |  |  |  | 8 µM | 128 µM |  | 128 µM | 191.8 µM | 85% | MIC ([1]; Salmonella typhimurium C77-31, 1 × 10^6 CFU/mL, 24 h, 37°C, triplicate): >256 µM; MIC, Trypsin [2, 13]: >256 µM; MIC ([3]; Cronobacter sakazakii ATCC29544, 1 × 10^6 CFU/mL, 24 h, 37°C, triplicate): >256 µM; MIC [4, 14]: >256 µM; MIC [5, 15]: >256 µM; MIC (Escherichia coli UB1005; Escherichia coli UB1005, 1 × 10^6 CFU/mL, 24 h, 37°C, triplicate): 256 µM; MIC ([10]; CMCC54004, 24 h): 32 µM; MIC ([7]; Salmonella pullorum C79-13, 1 × 10^6 CFU/mL, 37°C, triplicate): 256 µM
3 | RKWRIVVIRVRR-NH2 [K2W3V10R11] | 32 µM | 8 µM | 2 µM | 128 µM | 256 µM | 8 µM | 2 µM | 2 µM | 4 µM | 2 µM | 8 µM | 32 µM | 128 µM | 256 µM | 2 µM | 16 µM | 8 µM | 32 µM | 19.0 µM | 80% | MIC, Trypsin ([2]; ATCC25922, 1 h): >256 µM; MIC [11]: 64 µM; MIC [12]: 8 µM; MIC (Escherichia coli UB1005; UB1005, 24 h): 8 µM; MIC ([10]; CMCC54004, 24 h): 2 µM
4 | RRFRIVVIRWLR-NH2 [R2F3W10L11] | 64 µM | 32 µM | 8 µM | 16 µM | 128 µM | 8 µM | 2 µM | 8 µM | 2 µM | 4 µM | 16 µM | 32 µM | 256 µM | 256 µM | 2 µM | 32 µM | 32 µM | 32 µM | 32.0 µM | 71% | MIC, Trypsin ([2]; ATCC25922, 1 h): >256 µM; MIC [11]: 64 µM; MIC [12]: 8 µM; MIC (Escherichia coli UB1005; UB1005, 24 h): 16 µM; MIC ([10]; CMCC54004, 24 h): 16 µM
5 | RRWRIVVIRWRR-NH2 [R2W3W10R11] | 64 µM | 8 µM | 4 µM | 32 µM | 128 µM | 2 µM | 2 µM | 2 µM | 2 µM | 2 µM | 4 µM | 64 µM | 128 µM | 128 µM | 2 µM | 64 µM | 32 µM | 64 µM | 30.2 µM | 77% | MIC, Trypsin [2, 13]: >256 µM; MIC [11]: 256 µM; MIC [12]: 8 µM; MIC (Escherichia coli UB1005; UB1005, 24 h): 16 µM; MIC ([10]; CMCC54004, 24 h): 1 µM
6 | RWKRIVVIRKRR-NH2 [W2K3K10R11] | 256 µM | 16 µM | 4 µM | 16 µM | 8 µM | 4 µM | 4 µM | 4 µM | 4 µM | 4 µM | 8 µM | 256 µM |  |  | 4 µM |  | 256 µM |  | 170.0 µM | 83% | MIC, Trypsin [2, 13]: >256 µM; MIC [4, 14]: >256 µM; MIC [5, 15]: >256 µM; MIC ([8]; Salmonella typhimurium ATCC14028, 1 × 10^6 CFU/mL, 24 h, 37°C, triplicate): 128 µM; MIC (Bacillus cereus CMCC6303; Bacillus cereus CMCC6303, 1 × 10^6 CFU/mL, 24 h, 37°C, triplicate): 128 µM; MIC (Escherichia coli UB1005; UB1005, 24 h): 256 µM; MIC ([10]; Listeria monocytogenes CMCC54004, 1 × 10^6 CFU/mL, 24 h, 37°C, triplicate): 128 µM
7 | RWRRIVVIRVRR-NH2 [W2R3V10R11] | 32 µM | 4 µM | 2 µM | 32 µM | 8 µM | 8 µM | 2 µM | 2 µM | 4 µM | 2 µM | 4 µM | 16 µM | 256 µM | 64 µM | 2 µM | 64 µM | 32 µM | 32 µM | 24.0 µM | 80% | MIC, Trypsin ([2]; ATCC25922, 1 h): >256 µM; MIC [11]: 128 µM; MIC [12]: 8 µM; MIC (Escherichia coli UB1005; UB1005, 24 h): 16 µM; MIC ([10]; CMCC54004, 24 h): 2 µM
8 | melittin [reference compound] |  |  |  |  |  |  |  |  |  |  |  |  |  |  |  |  |  |  |  |  | Cytotoxicity (EA. hy 926 cells; at 16 μM): 100%
